According to patent publication US20220259558A1, “METHODS FOR OBTAINING EYE FIELD PROGENITOR CELLS FROM HUMAN PLURIPOTENT STEM CELLS” (Novo Nordisk A/S, priority 2019, published 2022):

Tests used:
hESC [1] = assay: Protein expression of hESC-derived progenitor cells by flow cytometry; type: cell-based, human; details: after 21 days, single SMAD inhibitor (GW788388)
Experimental: More than 40% of the cells show co-expression of the markers PAX6/MITF.
More than 50% of the cells show co-expression of the markers PAX6/VSX2.
(§1) hESC-RPE monolayer differentiation hESC were plated at a cell density of 5.5×10^4 cells/cm2 on hrLN-332 laminin coated dishes at 10 μg/mL (Biolaminin 332 LN, Biolamina) using NutriStem hPSC XF medium. Rho-kinase inhibitor (Y-27632, Millipore) at a concentration of 10 μM was added during the first 24 hours, while cells were kept at 37° C., 5% CO2. After 24 hours, the culture medium was replaced with differentiation medium according to the examples. The differentiation media “GMEM” in the following examples is always supplemented with Penicillin-Streptomycin solution (20 units/ml; Thermo Fisher), beta-Mercaptoethanol (0.5 mM; Thermo Fisher), Sodium pyruvate (1 mM; Thermo Fisher), Non-Essential Amino Acids (1×; Thermo Fisher).
In order to provide quantitative data of the cells generated with our BMP5-based protocol, we analysed the eye field progenitor cells generated under treatment with BMP5 for NR progenitor cells or with BMP5 and CHIR99021 for RPE progenitor cells by flow cytometry. Moreover, we tested single SMAD inhibition by removing NOGGIN from the protocol.

hESC [2] = assay: RNA (gene) expression analysis of differentiated hESC, real-time PCR; type: cell-based, human; details: for induction of gene expression of markers of eye field progenitor cells with a RPE progenitor cell identity: comparison of BMPs, day 7-21, with CHIR99021 day 12-21, single SMAD inhibition
Experimental: The graphs indicate the cycle threshold (CT) values from real-time polymerase chain reaction (PCR). Differentiated cells with BMP5 are collected at day 21 and RNA extracted, converted to cDNA and RNA expression analyses performed. hESC are used as comparison and CT values are inversely proportional to mRNA level.
RNA expression of RPE progenitor cell-related genes was quantified. Note that 200 ng/ml and 1000 ng/ml of BMP5 treatment promote the expression of RPE progenitor genes.
RNA expression of neural retina progenitor genes was quantified. 200 ng/ml and 1000 ng/ml of BMP5 treatment promote the expression of neural retina progenitor cell genes.
The effect of BMP5 is compared to that of BMP4, BMP7 and BMP4/7 heterodimer.
as §1
We analyzed gene expression at day 21 on cells that were generated with the following protocol, […]

hESC [3] = assay: Differentiation of hESC into eye field progenitor cells, marker-positive cells by immunofluorescence; type: cell-based, human
Source text: FIGS. 2A and 2B show the effect of human BMP5 and Activin A on the differentiation of hESC into VSX2 and MITF positive cells. Immunofluorescence showing conditions 1 and 2, without BMP5 or Activin A, with poor levels of MITF or VSX2. In contrast, the addition of BMP5 from day 12 (conditions 3 and 4), increase the number of cells positive for MITF and VSX2. The addition of Activin A from day 15, in combination with BMP5, has no clear additional effect. In contrast, the use of Activin A alone from day 12, or combination with BMP5 from day 15 (conditions 5 and 6), generates a lower number of cells positive for MITF and VSX2. […] The combination of IHH (Indian Hedgehog) and DKK2 (Dickkopf WNT Signaling Pathway Inhibitor 2) might help in the generation of MITF/VSX2 positive cells.
An initial treatment with the small molecule GW788388, NOGGIN and Endo IWR1 for 12 days, followed by a treatment with BMP5, IHH and DKK2 generates high numbers of PAX6/OTX2 double positive cells addressed by immunofluorescence. DAPI is used for nuclear staining of all cells.
The use of BMP5 induces the generation of MITF and VSX2 positive cells (second row), addressed by immunofluorescence, indicating the generation of neural retina progenitor cells. In contrast, the addition of the GSK3 inhibitor CHIR99021 (lower row) drastically blocks the expression of VSX2, and reinforces the expression of MITF and the generation of MITF positive cells with cobblestone morphology. This is indicative of RPE progenitor cells. First row, control without BMP5. DAPI is used for nuclear staining of all cells.
as §1
In order to differentiate hESC into eye progenitor cells, we tested the effect of BMP5 in different conditions in combination with small molecules and recombinant proteins that mimics developmental cues. We relied on sequential activation and/or repression of the common developmental pathways associated to eye development for our differentiation protocol and combined with activation of BMP pathway by BMP5. After cell dissociation, hESC line expanded on LN-521 were dissociated to single cells and seeded on LN-332 for differentiation. These cells adapted well to this laminin.
We decided to explore the inhibition of GSK3 with the small molecule CHIR99021 in combination with BMP5, and to remove the WNT inhibitor Endo IWR1 from the protocol, as GSK3 inhibition might activate canonical (beta-Catenin dependent) WNT signalling.
We decided to explore the effect of another SMAD inhibitor, RepSOX, in combination with NOGGIN, and to combine with BMP5 and CHIR99021 to obtain RPE progenitor cells positive for MITF. This will indicate if different SMAD inhibitors could be used in our BMP5-based protocol.

[4] = tested on: human embryonic stem cells (hESC); assay: Initial attachment of hESC on different laminins after single cell seeding (brightfield); type: cell-based; details: after 12 hours; hESC grown and maintained on LN-521, single cell seeding
Experimental: LN-332 can be used for further differentiation.
An internally generated hESC line was maintained on human recombinant laminin (hrLN) coated plates (Biolaminin 521 LN, Biolamina) in NutriStem hPSC XF medium (Biological Industries), in a 5% CO2 incubator at 37° C. and passaged enzymatically at 1:10-1:20 ratio every 3-5 days. For passaging, confluent cultures were washed once with phosphate buffered saline (PBS) without calcium and magnesium ions and incubated for 5 min at 37° C. with TrypLE Select (GIBCO, Thermo Fisher Scientific). The enzyme was then carefully removed and the cells were collected in fresh NutriStem hPSC XF medium by gentle pipetting to obtain single cell suspension and the required volume plated on a freshly hrLN-521 coated dish. After passage, the medium was replaced with fresh prewarmed NutriStem hPSC XF medium and changed daily.
hESC-RPE monolayer differentiation hESC were plated at a cell density of 5.5×10^4 cells/cm2 on hrLN-332 laminin coated dishes at 10 μg/mL (Biolaminin 332 LN, Biolamina) using NutriStem hPSC XF medium. Rho-kinase inhibitor (Y-27632, Millipore) at a concentration of 10 μM was added during the first 24 hours, while cells were kept at 37° C., 5% CO2. After 24 hours, the culture medium was replaced with differentiation medium according to the examples. […]

[5] = Example 1, immunofluorescence, factor from day 12 after NOGGIN+GW788388+Endo IWR1, to day 21

BMP5: human bone morphogenetic protein 5, recombinant protein (R&D systems), SEQ ID NO: 1
PAX6-positive cells (hESC [1]): more than 95%
double positive cells PAX6/VSX2 (hESC [1]): more than 50%
best condition (BMP5 concentration) to induce eye field progenitor cells with a RPE progenitor cell identity (hESC [2]; 0, 0.1, 200 and 1000 ng/ml tested, day 7-21, with CHIR99021 day 12-21, gene expression day 21): 200 ng/mL
best condition (BMP5 concentration) to generate eye field progenitor cells with a NR progenitor cell identity (hESC [2]; 0, 0.1, 200 and 1000 ng/ml tested, day 7-21, VSX2 gene expression day 21): 200 ng/mL
effect on generation of eye field progenitor cells (hESC [2]; BMP5 at 1000 ng/ml): positive but milder effect
induction of gene expression of markers of eye field progenitor cells with a RPE progenitor cell identity (hESC [2]): superior effect
MITF, PAX6 and VSX2 mRNA levels (hESC [2]; day 21, CT values, compared to hESC): increased compared to hESC
generation of MITF and VSX2-positive cells (hESC [3]; [5]): generated MITF and VSX2-positive cells
generation of MITF and VSX2-positive cells (hESC [3]; Example 2, dual SMAD inhibition (NOGGIN+GW788388), BMP5 from day 7 to day 21): strongly generated MITF and VSX2-positive cells
generation of double PAX6/OTX2 positive cells (hESC [3]; immunofluorescence, GW788388, NOGGIN and Endo IWR1 for 12 days, then BMP5, IHH and DKK2): induces the generation of double PAX6/OTX2 positive cells

LN-332: human recombinant laminin isoform 332 (Biolaminin 332 LN, Biolamina), coating matrix
initial attachment of hESC [4]: excellent attachment

B1: Activin A: Recombinant protein (R&D systems/Peprotech) (protein, UniProt P08476 311-426, looked up)
Inhibin beta A chain: GLECDGKVNICCKKQFFVSFKDIGWNDWIIAPSGYHANYCEGECPSHIAGTSGSSLSFHSTVINHYRMRGHSPFANLKSCCVPTKLRPMSMLYYDDGQNIIKKDIQNMIVEECGCS
modifications: Inhibin beta A chain
generation of MITF and VSX2-positive cells (hESC [3]; [5]): negative effect

B2: BMP7: member of the BMP family compared to BMP5 (protein, UniProt P18075 293-431, looked up)
Bone morphogenetic protein 7: STGSKQRSQNRSKTPKNQEALRMANVAENSSSDQRQACKKHELYVSFRDLGWQDWIIAPEGYAAYYCEGECAFPLNSYMNATNHAIVQTLVHFINPETVPKPCCAPTQLNAISVLYFDDSSNVILKKYRNMVVRACGCH
induction of gene expression of markers of eye field progenitor cells with a RPE progenitor cell identity (hESC [2]): better than BMP4

B3: DKK2: Dickkopf WNT Signaling Pathway Inhibitor 2, recombinant protein (protein, UniProt Q9UBU2 34-259, looked up)
Dickkopf-related protein 2: KLNSIKSSLGGETPGQAANRSAGMYQGLAFGGSKKGKNLGQAYPCSSDKECEVGRYCHSPHQGSSACMVCRRKKKRCHRDGMCCPSTRCNNGICIPVTESILTPHIPALDGTRHRDRNHGHYSNHDLGWQNLGRPHTKMSHIKGHEGDPCLRSSDCIEGFCCARHFWTKICKPVLHQGEVCTKQRKKGSHGLEIFQRCDCAKGLSCKVWKDATYSSKARLHVCQKI
generation of MITF and VSX2-positive cells (hESC [3]; [5]): not sufficient to generate MITF or VSX2-positive cells

B4: BMP4: member of the BMP family compared to BMP5 (protein, UniProt P12644 293-408, looked up)
Bone morphogenetic protein 4: SPKHHSQRARKKNKNCRRHSLYVDFSDVGWNDWIVAPPGYQAFYCHGDCPFPLADHLNSTNHAIVQTLVNSVNSSIPKACCVPTELSAISMLYLDEYDKVVLKNYQEMVVEGCGCR
induction of gene expression of markers of eye field progenitor cells with a RPE progenitor cell identity (hESC [2]): least capacity to induce these markers
